Experimental data taken from patent US20230110491A1, “LUCIFERASE-BASED METHODS FOR DETECTING BACTERIAL AND FUNGAL CELLS AND ASSESSING SUSCEPTIBILITY OF BACTERIAL CELLS TO ANTIBIOTICS” (Biosynth AG, priority 2020, published 2023).
Values after ≈ are worked out from the molar mass of the structure shown.

How the values were obtained:
[1] = tested on: Ampicillin resistant (AMP^R) E. coli RKI 66/09 (AmpC); experiment: ATP assay for antibiotic susceptibility testing (luminescence, ATP release); type: cell-based, Escherichia coli
Protocol: (§1) Nutrient broth pH 7.4 (5 g/I peptone, 5 g/I NaCl, 2 g/I yeast extract, 1 g/I meat extract) was autoclaved and cooled to room temperature. […] Next, 0.4 mM D-luciferin (Biosynth AG) and 1 mM MgCl2 was added from concentrated stock solutions. The prepared broth was sterilized by filtration (0.2 μm), incubated for 2.5 h at 30° C. in order to burn-off background and then added to a white microplate (0.198 ml per well).
(§2) Ampicillin was added from a dilution series of a filter-sterilized, concentrated stock solution prepared in sterile ultrapure water (5 μl per well). Sterile water was added to control wells without antibiotic. Wells were inoculated with 5 μl of cell suspensions (OD 0.1, prepared in sterile PBS from agar plate pre-cultures) of either Ampicillin resistant (AMP^R) E. coli RKI 66/09 (AmpC) or Ampicillin sensitive (AMP^S) E. coli ATCC 25922. Initial cell concentration in wells was approximately 2.5×10^6 CFU/ml. The microplate was incubated at 37° C. in a luminescence microplate reader and relative luminescence units (RLU) were measured every 2 min for 8 h. For comparison, optical density (600 nm) was measured for all wells after 15 h incubation at 37° C.

[2] = tested on: Ampicillin sensitive (AMP^S) E. coli ATCC 25922; experiment: as above; type: cell-based, Escherichia coli
Protocol: as §1, §2

[3] = tested on: Ampicillin resistant (AMP^R) E. coli RKI 66/09 (AmpC); experiment: Optical density (600 nm) after 15 h incubation with ampicillin; type: cell-based, Escherichia coli; conditions: all tested ampicillin concentrations
Protocol: as §2

[4] = tested on: Ampicillin sensitive (AMP^S) E. coli ATCC 25922; experiment: as above; type: cell-based, Escherichia coli
Protocol: as §2

[5] = tested on: Salmonella enteritidis RKI 05/07992; experiment: Coupled enzyme assay using pro-luciferins on solid nutrient agar with luciferase and ATP; type: cell-based; conditions: solid nutrient agar with luciferase, pro-luciferin and 1 mM ATP; approx. 10 CFU/well; 37° C.
Protocol: (§3) Nutrient agar pH 7.4 (5 g/I peptone, 5 g/I NaCl, 2 g/I yeast extract, 1 g/I meat extract, 15 g/I agar) was autoclaved and cooled to 50° C. […] Next, 40 μM D-luciferin (Biosynth AG) was added from a concentrated stock solution.
(§4) Actively growing cultures (Nutrient Broth, 37° C., OD600 0.08 to 0.33) of Staphylococcus aureus ATCC 29213 and Salmonella enteritidis RKI 05/07992 were then diluted to […] in sterile PBS and inoculated to microplate wells with agar (1 μl per well=approx. 10 CFU/well). 1 μl sterile phosphate buffered saline (PBS) was added to sterile control wells. The surrounding wells were filled with sterile water and the plate was incubated at 37° C. in a luminescence microplate reader. The luminescence was measured every 10 min (kinetic mode).
(§5) (Biosynth AG) and 1 mM ATP.

[6] = tested on: Staphylococcus aureus ATCC 29213; experiment: as above; type: cell-based; conditions: solid nutrient agar with luciferase, pro-luciferin and 1 mM ATP; approx. 10 CFU/well; 37° C.
Protocol: as §3, §4, §5

Row | SMILES | time course of ATP release ([1]; 1.56-100 μg/ml ampicillin) | dependency of onset time on ampicillin concentration ([1]; onset time = first time point with RLU above 1200, all tested concentrations) | ATP release at non-inhibitory concentration ([2]; 1.56 μg/ml ampicillin) | time after which ATP increase can be detected ([2]; at inhibitory antibiotic concentrations, cell concentrations as low as 2×10^6 CFU/ml) [min] | ATP release compared to the control without antibiotic ([2]; at the MIC or above (6.25, 25, 100 μg/ml)) | dependency of onset time on ampicillin concentration ([2]; onset time = first time point with RLU above 1200) | growth inhibition (optical density after 15 h) [3] | cell growth (optical density after 15 h) ([4]; 10-100 μg/ml ampicillin) | MIC ([4]; Escherichia coli, ATCC25922, OD 600 nm, 15 h, 37° C., read-out: MIC from optical density after 15 h) [µg/mL] | incubation time after which luminescence begins to strongly increase [5] | incubation time after which luminescence increases [6]
1 | CC1(C)S[C@@H]2[C@H](NC(=O)[C@H](N)c3ccccc3)C(=O)N2[C@H]1C(=O)O [ampicillin] | independent of ampicillin concentration | essentially the same onset time | very high amounts of ATP are released | 30 | occurs earlier and is increased | inversely correlates with ampicillin concentration | no growth inhibition | lack of cell growth | ~6 (≈ 17.2 µM) |  | 
2 | CCCCCCCC(=O)Oc1ccc(COc2ccc3nc(C4=N[C@@H](C(=O)O)CS4)sc3c2)cc1 [D-luciferin-spacer-caprylate] |  |  |  |  |  |  |  |  |  | about 10 hours | about 17 hours
